This passage reports T/C results from PubChem BioAssay AID248 (DTP/NCI, 2004).

The subject of the test is L1210 leukemia ip in BDF1 mice, survival T/C. Kind of test: NCI In Vivo Anticancer Drug Screen. Data for tumor model L1210 Leukemia (intraperitoneal) in B6D2F1 (BDF1) mice. The note with it: endpoint: mean survival time, higher = longer survival. Summed up: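 Antitumor effect is assessed in tumor-bearing animals. Survival in the compound arm is compared with a vehicle-dosed control arm and expressed as their quotient.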

Where [1] appears, read: dose: 100.0 mg/kg/injection, schedule: Q01DX001 (ip), vehicle: carboxymethylcellulose (CMC).
The mark [2] stands for this setting: dose: 100.0 mg/kg/injection, schedule: Q04DX003 (ip), vehicle: saline with Tween-80.
Where [3] appears, read: dose: 200.0 mg/kg/injection, schedule: Q04DX003 (ip), vehicle: saline with Tween-80.
[4] abbreviates: dose: 400.0 mg/kg/injection, schedule: Q04DX003 (ip), vehicle: saline with Tween-80.
Where [5] appears, read: dose: 100.0 mg/kg/injection, schedule: Q01DX009 (ip), vehicle: saline with Tween-80.
The mark [6] stands for this setting: dose: 100.0 mg/kg/injection, schedule: Q01DX009 (ip), vehicle: carboxymethylcellulose (CMC).
[7] abbreviates: dose: 100.0 mg/kg/injection, schedule: Q04DX002 (ip), vehicle: carboxymethylcellulose (CMC).
The mark [8] stands for this setting: dose: 100.0 mg/kg/injection, schedule: Q04DX003 (ip), vehicle: carboxymethylcellulose (CMC).
The mark [9] stands for this setting: dose: 200.0 mg/kg/injection, schedule: Q01DX009 (ip), vehicle: carboxymethylcellulose (CMC).
Where [10] appears, read: dose: 200.0 mg/kg/injection, schedule: Q04DX002 (ip), vehicle: carboxymethylcellulose (CMC).
The mark [11] stands for this setting: dose: 200.0 mg/kg/injection, schedule: Q04DX003 (ip), vehicle: carboxymethylcellulose (CMC).
Where [12] appears, read: dose: 400.0 mg/kg/injection, schedule: Q04DX002 (ip), vehicle: carboxymethylcellulose (CMC).

Each structure is given as a SMILES string. Several values for one entry are separate records, joined by “and”; a condition that tells them apart may be missing. Identical values can stand only once. Inconclusive results and toxic doses are left out.

Turning to `O=C1NC(c2ccccc2)(c2ccccc2)C(=O)N1CN1CCN(CN2C(=O)NC(c3ccccc3)(c3ccccc3)C2=O)CC1`, the T/C runs as follows: (dose: 6.25 mg/kg/injection, schedule: Q01DX009 (ip), vehicle: saline sonified) 99 % of control; (dose: 12.5 mg/kg/injection, schedule: Q01DX009 (ip), vehicle: saline sonified) 100 % of control; (dose: 25.0 mg/kg/injection, schedule: Q01DX009 (ip), vehicle: saline sonified) 94 % of control; (dose: 100.0 mg/kg/injection, schedule: Q01DX001 (ip), vehicle: Klucel (hydroxypropylcellulose) (HPC)) 108 % of control; (dose: 200.0 mg/kg/injection, schedule: Q01DX001 (ip), vehicle: Klucel (hydroxypropylcellulose) (HPC)) 92 % of control; (dose: 400.0 mg/kg/injection, schedule: Q01DX001 (ip), vehicle: Klucel (hydroxypropylcellulose) (HPC)) 92 % of control.
For the compound `O=NN(CCCl)C(=O)Nc1cccc(Cl)c1`, the T/C by setting is: (dose: 2.28 mg/kg/injection, schedule: Q01DX001 (ip), vehicle: carboxymethylcellulose (CMC)) 112 % of control; (dose: 4.56 mg/kg/injection, schedule: Q01DX001 (ip), vehicle: carboxymethylcellulose (CMC)) 116 % of control; under setting [1], 160 % of control; (dose: 125.0 mg/kg/injection, schedule: Q01DX001 (ip), vehicle: carboxymethylcellulose (CMC)) 104 % of control; (dose: 150.0 mg/kg/injection, schedule: Q01DX001 (ip), vehicle: carboxymethylcellulose (CMC)) 153 % of control; (dose: 175.0 mg/kg/injection, schedule: Q01DX001 (ip), vehicle: carboxymethylcellulose (CMC)) 156 % of control.
In the case of `Nc1ccc(C(=O)Oc2ccc([N+](=O)[O-])cc2)cc1`, the T/C under setting [2] was 98 % of control, the T/C under setting [3] is 88 % of control and the T/C under setting [4] is 86 % of control.
Take `Nc1[nH]nc2nccnc12`: the T/C is 103 % of control under setting [5]; 96 % of control under setting [2]; 98 % of control (dose: 200.0 mg/kg/injection, schedule: Q01DX009 (ip), vehicle: saline with Tween-80); 97 % of control under setting [3]; 95 % of control (dose: 400.0 mg/kg/injection, schedule: Q01DX009 (ip), vehicle: saline with Tween-80); 102 % of control under setting [4].
Take `COC(=O)C(N)Cc1ccc(O)c(O)c1` (centres undefined): the T/C by setting is: (dose: 100.0 mg/kg/injection, schedule: Q01DX009 (ip), vehicle: saline) 110 % of control; (dose: 100.0 mg/kg/injection, schedule: Q04DX003 (ip), vehicle: saline) 102 % of control; (dose: 200.0 mg/kg/injection, schedule: Q01DX009 (ip), vehicle: saline) 112 % of control; (dose: 200.0 mg/kg/injection, schedule: Q04DX003 (ip), vehicle: saline) 98 % of control; (dose: 400.0 mg/kg/injection, schedule: Q01DX009 (ip), vehicle: saline) 112 % of control; (dose: 400.0 mg/kg/injection, schedule: Q04DX003 (ip), vehicle: saline) 102 % of control.
For `COc1cccc(/C=N\N=C\c2cccc(OC)c2O)c1O`, the T/C runs as follows: (dose: 100.0 mg/kg/injection, schedule: Q01DX001 (ip), vehicle: saline with Tween-80) 91 % of control; (dose: 200.0 mg/kg/injection, schedule: Q01DX001 (ip), vehicle: saline with Tween-80) 103 % of control and 105 % of control; (dose: 400.0 mg/kg/injection, schedule: Q01DX001 (ip), vehicle: saline with Tween-80) 94 % of control and 95 % of control.
On to `Cc1c(C)c(NC(=O)N(CCCl)N=O)c(C)c(C)c1NC(=O)N(CCCl)N=O`, for which the T/C by setting is: (dose: 15.5 mg/kg/injection, schedule: Q01DX001 (ip), vehicle: other) 120 % of control; (dose: 62.0 mg/kg/injection, schedule: Q01DX001 (ip), vehicle: other) 152 % of control; (dose: 125.0 mg/kg/injection, schedule: Q01DX001 (ip), vehicle: other) 159 % of control and 160 % of control and 207 % of control; (dose: 250.0 mg/kg/injection, schedule: Q01DX001 (ip), vehicle: other) 203 % of control and 211 % of control and 252 % of control; (dose: 375.0 mg/kg/injection, schedule: Q01DX001 (ip), vehicle: other) 237 % of control; (dose: 500.0 mg/kg/injection, schedule: Q01DX001 (ip), vehicle: other) 223 % of control and 283 % of control. Besides, the T/C (dose: 501.0 mg/kg/injection, schedule: Q01DX001 (ip), vehicle: other) was 115 % of control; the T/C (dose: 750.0 mg/kg/injection, schedule: Q01DX001 (ip), vehicle: other) was 151 % of control and 238 % of control; the T/C (dose: 1000.0 mg/kg/injection, schedule: Q01DX001 (ip), vehicle: other) is 190 % of control.
For the compound `CCCOC(=O)Cc1cccc2ccccc12`, the T/C (dose: 222.0 mg/kg/injection, schedule: Q01DX Z (ip), vehicle: saline) was 90 % of control; the T/C (dose: 333.0 mg/kg/injection, schedule: Q01DX Z (ip), vehicle: saline) is 96 % of control; the T/C (dose: 500.0 mg/kg/injection, schedule: Q01DX Z (ip), vehicle: saline) is 96 % of control.
For the compound `O=[N+]([O-])c1ccccc1N1N=NC2CC/C(=C\c3ccc(Cl)cc3)C21N1CCOCC1` (centres undefined), the T/C runs as follows: (dose: 100.0 mg/kg/injection, schedule: Q04DX002 (ip), vehicle: saline) 108 % of control; (dose: 200.0 mg/kg/injection, schedule: Q04DX002 (ip), vehicle: saline) 89 % of control; (dose: 400.0 mg/kg/injection, schedule: Q04DX002 (ip), vehicle: saline) 92 % of control.
For `O/N=C\c1ccnc2ccccc12`, the T/C reads like this: under setting [6], 93 % of control and 98 % of control; under setting [7], 100 % of control (2×) and 104 % of control; under setting [8], 97 % of control; under setting [9], 105 % of control and 90 % of control; under setting [10], 95 % of control and 100 % of control (2×); under setting [11], 104 % of control. The T/C (dose: 400.0 mg/kg/injection, schedule: Q01DX009 (ip), vehicle: carboxymethylcellulose (CMC)) is 98 % of control; the T/C under setting [12] is 100 % of control and 104 % of control and 90 % of control; the T/C (dose: 400.0 mg/kg/injection, schedule: Q04DX003 (ip), vehicle: carboxymethylcellulose (CMC)) is 98 % of control.
Consider `Cc1cc(C2=NCC(C)(C)S2)ccc1O`, for which the T/C was 92 % of control (dose: 25.0 mg/kg/injection, schedule: Q01DX005 (ip), vehicle: saline with Tween-80); 91 % of control (dose: 25.0 mg/kg/injection, schedule: Q01DX009 (ip), vehicle: saline with Tween-80); 92 % of control (dose: 50.0 mg/kg/injection, schedule: Q01DX005 (ip), vehicle: saline with Tween-80); 98 % of control (dose: 50.0 mg/kg/injection, schedule: Q01DX009 (ip), vehicle: saline with Tween-80); 93 % of control and 105 % of control (dose: 100.0 mg/kg/injection, schedule: Q01DX005 (ip), vehicle: saline with Tween-80); 98 % of control under setting [5]. Moreover, the T/C by setting is: (dose: 100.0 mg/kg/injection, schedule: Q04DX002 (ip), vehicle: saline with Tween-80) 100 % of control; (dose: 200.0 mg/kg/injection, schedule: Q04DX002 (ip), vehicle: saline with Tween-80) 96 % of control; (dose: 400.0 mg/kg/injection, schedule: Q04DX002 (ip), vehicle: saline with Tween-80) 88 % of control.
In the case of `NNC(=O)CNc1cc(Cl)cc(Cl)c1`, the T/C reads like this: under setting [1], 94 % of control; under setting [6], 92 % of control; (dose: 100.0 mg/kg/injection, schedule: Q04DX002 (ip), vehicle: Klucel (hydroxypropylcellulose) (HPC)) 91 % of control; under setting [7], 95 % of control and 100 % of control; under setting [8], 92 % of control; (dose: 200.0 mg/kg/injection, schedule: Q01DX001 (ip), vehicle: carboxymethylcellulose (CMC)) 96 % of control. Also, the T/C is 88 % of control under setting [9]; 109 % of control (dose: 200.0 mg/kg/injection, schedule: Q04DX002 (ip), vehicle: Klucel (hydroxypropylcellulose) (HPC)); 95 % of control and 104 % of control under setting [10]; 97 % of control under setting [11]; 98 % of control under setting [12].
